Data reported in PMC12648108, “Phenotypic pleiotropy of missense variants in human B cell confinement receptor P2RY8” (Cell Genomics, 2025).

Tests used:
[1] = biological target: T1, P2RY8-miniGα13 in complex with Gβ1γ2 (Homo sapiens, UniProt Q86VZ1); experiment: cryo-EM structure, […] Å map; format: binding; settings: orthosteric pocket; active state, Gβ1γ2 bound; pH 7.5, L-MNG/GDN/CHS, 30 μM GGG
T1 construct: Expi293F TetR; complexed with human Gβ1γ2 from Hi5 cells

[2] = biological target: T2, P2RY8 (Homo sapiens, UniProt Q86VZ1, L220Y); experiment: TRUPATH BRET G13 activation assay; format: cell-based; settings: agonist (falling BRET ratio); HEK293T with Gα13-RLuc8, Gβ3, Gγ9-GFP2; HBSS, 20 mM HEPES
T2 construct: full length, 358 codons after start to 358; preprolactin signal + N-terminal OX56 tag (P2A-eGFP vector) for BRET; P2RY8-LgBiT fusion for beta-arrestin; MSCV-GFP vector in WEHI-231; expressed in HEK293T or WEHI-231

[3] = biological target: T3, P2RY8 (Homo sapiens, UniProt Q86VZ1); experiment: migration inhibition of P2RY8-transduced WEHI-231 cells; format: cell-based; settings: agonist; CXCL12 50 ng/mL, 37 °C, 3 h
T3 construct: full length, 358 codons after start to 358; preprolactin signal + N-terminal OX56 tag (P2A-eGFP vector) for BRET; P2RY8-LgBiT fusion for beta-arrestin; MSCV-GFP vector in WEHI-231; expressed in HEK293T or WEHI-231

fold less potency than GGG [3]	SMILES	cryo-EM structure, 2.7 Å map [1]	G protein activation [2]
–	CC(C)=CCC/C(C)=C/CC/C(C)=C/CC/C(C)=C/CSC[C@H](NC(=O)CC[C@H](N)C(=O)O)C(=O)NCC(=O)O [S-geranylgeranyl-L-glutathione]	density consistent with GGG located in the canonical class A GPCR orthosteric ligand-binding pocket	The strongly deleterious variant L220Y was unable to drive G protein activation
~ 100 fold	CCCCC/C=C\C\C=C/C=C/C=C/[C@@H](SC[C@H](NC(=O)CC[C@H](N)C(=O)O)C(=O)NCC(=O)O)[C@@H](O)CCCC(=O)O [leukotriene C4]	–	–
